Data taken from PMC11208024, “Cholestenoic acid as endogenous epigenetic regulator decreases hepatocyte lipid accumulation in vitro and in vivo” (American Journal of Physiology - Gastrointestinal and Liver …, 2023).

Assays:
Format in all cases: biochemical
[1] = biological target: T1, DNA methyltransferases 1 (DNMT1) (Homo sapiens, UniProt P26358); assay: radiometric methyltransferase assay with recombinant enzyme, poly(dI-dC) and 3H-SAM; activation at low, inhibition at higher concentration (IC50 […])
[2] = biological target: DNMT3b (Homo sapiens, UniProt Q9UBC3); assay: radiometric methyltransferase assay with recombinant enzyme, Lambda DNA substrate and 3H-SAM
[3] = biological target: DNMT3a (Homo sapiens, UniProt Q9Y6K1); assay: as above
[4] = biological target: T1, DNA methyltransferases 1 (DNMT1); assay: positive control in radiometric DNMT1 assay; […] inhibition at […]

T1 sequence (P26358 whole entry): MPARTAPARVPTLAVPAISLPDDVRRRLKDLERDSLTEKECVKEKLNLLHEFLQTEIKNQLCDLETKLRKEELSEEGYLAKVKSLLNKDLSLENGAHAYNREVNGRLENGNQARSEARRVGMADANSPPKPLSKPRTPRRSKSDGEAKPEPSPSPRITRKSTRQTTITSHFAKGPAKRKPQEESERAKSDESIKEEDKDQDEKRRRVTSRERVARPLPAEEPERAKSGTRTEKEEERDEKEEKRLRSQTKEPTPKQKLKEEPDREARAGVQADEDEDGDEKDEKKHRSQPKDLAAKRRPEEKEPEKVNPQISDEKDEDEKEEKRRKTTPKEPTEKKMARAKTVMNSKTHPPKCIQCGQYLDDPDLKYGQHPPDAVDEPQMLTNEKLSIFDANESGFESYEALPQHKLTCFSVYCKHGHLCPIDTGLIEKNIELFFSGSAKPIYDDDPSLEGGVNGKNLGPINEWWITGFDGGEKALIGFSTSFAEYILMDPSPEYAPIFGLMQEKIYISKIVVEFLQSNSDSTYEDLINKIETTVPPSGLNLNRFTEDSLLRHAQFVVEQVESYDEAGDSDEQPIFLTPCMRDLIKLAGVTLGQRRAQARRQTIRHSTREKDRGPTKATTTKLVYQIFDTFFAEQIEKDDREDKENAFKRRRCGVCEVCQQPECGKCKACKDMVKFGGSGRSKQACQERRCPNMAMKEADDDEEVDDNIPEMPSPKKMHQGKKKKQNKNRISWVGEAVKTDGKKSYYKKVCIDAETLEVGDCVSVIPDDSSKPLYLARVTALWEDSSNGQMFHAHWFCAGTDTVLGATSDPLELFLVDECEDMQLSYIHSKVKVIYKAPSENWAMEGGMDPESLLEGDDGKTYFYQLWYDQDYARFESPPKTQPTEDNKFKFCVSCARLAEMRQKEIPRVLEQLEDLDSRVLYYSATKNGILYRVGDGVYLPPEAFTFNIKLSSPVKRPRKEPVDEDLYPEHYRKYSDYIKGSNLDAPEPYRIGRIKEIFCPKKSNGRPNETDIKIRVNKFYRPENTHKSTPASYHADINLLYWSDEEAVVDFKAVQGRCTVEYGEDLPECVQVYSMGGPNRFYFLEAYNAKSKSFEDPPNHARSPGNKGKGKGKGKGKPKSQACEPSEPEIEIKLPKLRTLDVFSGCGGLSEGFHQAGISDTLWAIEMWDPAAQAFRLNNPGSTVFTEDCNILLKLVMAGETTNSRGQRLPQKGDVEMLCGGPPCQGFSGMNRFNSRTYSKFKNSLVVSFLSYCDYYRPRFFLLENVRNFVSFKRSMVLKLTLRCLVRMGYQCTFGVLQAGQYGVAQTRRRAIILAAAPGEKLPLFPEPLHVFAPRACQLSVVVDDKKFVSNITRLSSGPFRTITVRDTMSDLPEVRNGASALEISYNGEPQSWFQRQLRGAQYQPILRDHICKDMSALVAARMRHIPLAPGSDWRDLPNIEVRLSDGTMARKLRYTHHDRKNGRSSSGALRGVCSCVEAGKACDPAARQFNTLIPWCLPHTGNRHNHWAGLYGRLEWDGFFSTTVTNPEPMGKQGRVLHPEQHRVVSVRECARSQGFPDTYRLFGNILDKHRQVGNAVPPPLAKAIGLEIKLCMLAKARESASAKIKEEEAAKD
Chain of DNMT3a (Q9Y6K1 whole entry, looked up): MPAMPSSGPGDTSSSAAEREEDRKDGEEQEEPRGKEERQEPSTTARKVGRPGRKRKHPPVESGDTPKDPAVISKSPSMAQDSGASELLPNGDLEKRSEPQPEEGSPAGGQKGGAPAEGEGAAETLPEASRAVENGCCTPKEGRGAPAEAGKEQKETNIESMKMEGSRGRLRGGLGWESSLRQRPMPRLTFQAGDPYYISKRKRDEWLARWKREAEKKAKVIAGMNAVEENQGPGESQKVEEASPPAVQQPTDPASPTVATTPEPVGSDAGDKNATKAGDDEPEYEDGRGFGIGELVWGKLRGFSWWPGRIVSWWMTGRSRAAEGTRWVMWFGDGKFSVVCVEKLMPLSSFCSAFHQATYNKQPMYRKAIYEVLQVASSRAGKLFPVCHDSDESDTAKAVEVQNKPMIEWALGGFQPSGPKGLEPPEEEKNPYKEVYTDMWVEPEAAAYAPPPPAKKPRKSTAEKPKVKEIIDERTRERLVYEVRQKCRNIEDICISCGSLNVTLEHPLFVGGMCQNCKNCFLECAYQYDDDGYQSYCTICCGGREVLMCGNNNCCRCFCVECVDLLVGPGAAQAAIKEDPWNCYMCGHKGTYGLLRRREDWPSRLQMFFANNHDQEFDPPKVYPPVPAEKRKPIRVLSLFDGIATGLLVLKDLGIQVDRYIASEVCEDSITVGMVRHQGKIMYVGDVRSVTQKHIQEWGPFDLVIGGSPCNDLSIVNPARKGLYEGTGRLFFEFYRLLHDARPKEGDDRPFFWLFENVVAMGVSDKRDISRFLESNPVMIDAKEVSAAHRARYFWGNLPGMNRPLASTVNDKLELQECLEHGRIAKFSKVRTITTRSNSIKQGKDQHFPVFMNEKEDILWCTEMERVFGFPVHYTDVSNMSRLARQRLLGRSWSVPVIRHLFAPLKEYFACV

SMILES | EC50 [1] [nM] | IC50 [2] [µM] | IC50 [3] [µM] | inhibition at 1 µM [4] [%]
C[C@H](CCC[C@@H](C)[C@H]1CC[C@H]2[C@@H]3CC=C4C[C@@H](O)CC[C@]4(C)[C@H]3CC[C@]12C)C(=O)O [CA, Cholestenoic acid] | 1990 | 4.89 | 8.41 | 
Nc1ncnc2c1ncn2[C@@H]1O[C@H](CSCC[C@H](N)C(=O)O)[C@@H](O)[C@H]1O [S-adenosyl homocysteine] |  |  |  | 95
